Earlier results, collected in patent US20240027453A1, “METHOD FOR DETECTION AND QUANTITATIVE MONITORING OF INFECTIONS WITH HERPESVIRUSES” (The Trustees of Princeton University, priority 2020, published 2024).

How the values were obtained:
HCMV [1] = conditions: cited from earlier work
HCMV [2] = conditions: in MRC5 cells; cited from earlier work

SMILES	decrease in HCMV titers (HCMV [1]; […] CAY10602, 50 μM trans-Resveratrol)	HCMV titers (HCMV [1])	IC50 (HCMV [2])
Nc1c(S(=O)(=O)c2ccccc2)c2nc3ccccc3nc2n1-c1ccc(F)cc1 [CAY10602]	~50%	decreased	
Nc1ccn(C[C@@H](CO)OCP(=O)(O)O)c(=O)n1 [CDV, cidofovir]			~500 nM
